Like-named read-outs stand apart in the source and are kept apart here.
How the values were obtained:
[1] = test system: acute Alzheimer's mouse model; test: Acute Alzheimer's mouse model (acquisition and probe test); assay type: in vivo
Method: 7-1. Potential therapeutic effect of SB1617 in an acute Alzheimer's mouse model was identified, and the design for the experiment is schematically shown in FIG. 40
7-3. As a result of confirming the treatment efficacy through a probe test, after removing the platform, it was performed by recording how many times the mouse passed the position where the platform was […]

[2] = test system: PERK signaling (p-PERK, p-elF2a, ATF4); test: Time course of PERK activation in SH-SY5Y cells (immunoblot); assay type: cell-based, human
Method: 4-2. PDIA3 and DNAJC3 play a role in regulating tau aggregation by inhibiting the PERK signaling pathway. Accordingly, human neuroblastoma SH-SY5Y cells were treated with 10 μM SB1617, treated with or without thapsigargin, and PERK activation was confirmed over time.
The stress-response potency of SB1617 may be due to upregulation of PDIA3 and DNAJC3 levels or changes in the redox state of partner proteins under ER stress conditions.

[3] = target: T1, DNAJC3 (Homo sapiens, UniProt Q13217); test: TS-FITGE thermal stability shift; assay type: binding; parameters: endogenous in cells; host or cells: HEK293 BiFC-tau cells (TS-FITGE, CETSA); conditions: 10 μM, 200 nM thapsigargin, 3 hours, HEK293 BiFC-tau cells
T1 sequence (Q13217 32-504): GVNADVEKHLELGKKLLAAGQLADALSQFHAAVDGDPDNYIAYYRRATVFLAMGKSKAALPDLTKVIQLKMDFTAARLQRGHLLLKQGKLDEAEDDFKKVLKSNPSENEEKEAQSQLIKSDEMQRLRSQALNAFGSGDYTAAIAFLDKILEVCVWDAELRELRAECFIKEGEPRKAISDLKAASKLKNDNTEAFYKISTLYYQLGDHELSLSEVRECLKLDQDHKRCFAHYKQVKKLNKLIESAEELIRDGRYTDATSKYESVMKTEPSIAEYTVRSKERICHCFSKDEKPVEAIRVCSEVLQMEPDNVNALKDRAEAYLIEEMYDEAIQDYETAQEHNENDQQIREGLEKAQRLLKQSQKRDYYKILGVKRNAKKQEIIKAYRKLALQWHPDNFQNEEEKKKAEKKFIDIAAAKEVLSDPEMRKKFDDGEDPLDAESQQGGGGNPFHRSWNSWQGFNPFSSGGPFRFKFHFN
Method: HEK293 BiFC-tau cells were treated with dimethylsulfoxide (DMSO, 0.1%) and a compound according to the present invention (10 μM) in the presence of thapsigargin (200 nM) for 3 hours. The cell suspension was heated at the indicated temperature range for 3 minutes and then at 25° C. for 3 minutes. The heated cells were washed with PBS and resuspended in lysis buffer A (0.4% NP-40 in PBS supplemented with protease inhibitor cocktail). For cell lysis, cell suspensions were freeze-thawed in liquid nitrogen three times. The cell lysate was washed by centrifugation at 20000 g, 4° C. for 20 minutes. Protein concentration of the soluble fraction was quantified by Pierce BCA protein assay. After precipitating 50 μg of protein with cold acetone, it was centrifuged at […] and 4° C. for 7 minutes. The residual pellet was resuspended in 10 μl of conjugation buffer (30 mM Tris-HCl at pH 8.6, 30 mM thiourea, 7 M urea and 4% w/v CHAPS). 1 μl of 0.4 mM Cy2-N-hydroxysuccinimide(Cy2-NHS) (for DMSO-treated group), Cy3-NHS (for SB1607-treated group) or Cy5-NHS (for SB1617-treated group) was mixed with the protein and incubated at 4° C. for 45 minutes. […] Protein spot locations and fluorescence signals were analyzed with DeCyder 2D software ver. […]

[4] = Pharmacokinetics test in male ICR mice; assay type: in vivo; conditions: CD-1 (ICR), mouse, plasma, 5 mg/kg; for half-life: male
Method: After intravenous or intraperitoneal administration (5 mg/kg, 3.3 mL/kg) of the compound (SB1617, 5% DMSO/[…]) according to the present invention to CD-1 (ICR) male mice (7 weeks old, KOATECH, Korea), blood was collected at designated time points from the orbital venous plexus. The concentration of the compound (SB1617) according to the present invention was examined from the plasma samples using an LC-MS/MS analyzer (Agilent 1200, 4000 Qtrap). Pharmacokinetic parameters were obtained from plasma concentration-time plots using WinNonlin software (Pharsight, USA).
6-1. In order to evaluate the suitability of the compound (SB1617) according to this invention in vivo, pharmacokinetic properties and blood-brain barrier penetration properties were identified using male ICR mice according to the methods described in Examples 1-15 and 1-16.

CN(Cc1ccc(Cl)cc1)c1ncnc2c1[C@@H]1OC[C@H](CN2)N1S(=O)(=O)c1ccc([N+](=O)[O-])cc1 [Compound 117]
learning ability (Acquisition test), rank order ([1]; acute Alzheimer's mouse model): WT >Donepezil >SB-1617>Vehicle | probe test, number of times of entering the SW quadrant space ([1]; compared to the vehicle): significantly higher value | probe test, number of times passing the virtual platform ([1]; compared to the vehicle): significantly higher value | probe test, time to reach the platform ([1]; compared to the vehicle): significantly lower value | probe test, percentage (%) of the time spent in the quadrant where the platform exists ([1]; mouse, in vivo): remembered the location of the platform well | PERK activation over time ([2]; 10 μM SB1617, with thapsigargin): prolonged PERK activation | activation of downstream PERK signaling ([2]; 10 μM SB1617, without thapsigargin (absence of cell stress)): not significant | thermal stability of protein (TS-FITGE) [3]: thermal stability of the protein was improved | AUC(0-inf) ([4]; ip, I.P.): 5650 ± 3320 ng·h/mL | AUC(0-t) ([4]; ip, I.P.): 6070 ± 2810 ng·h/mL | Cmax ([4]; ip, I.P.): 857 ± 339 ng/mL | Tmax ([4]; ip, I.P.): 1.67 ± 2.02 h | AUC(0-inf) ([4]; iv, I.V.): 4490 ± 150 ng·h/mL | AUC(0-t) ([4]; iv, I.V.): 4190 ± 112 ng·h/mL | clearance ([4]; iv, I.V.): 18.7 mL/min/kg | Vd ([4]; iv, I.V., read-out: Vss): 6.27 ± 0.928 L/kg | half-life ([4]; ip, I.P., read-out: T1/2 (converted)): 6.57 ± 0.0563 h | half-life ([4]; ip, intraperitoneal injection, read-out: half-life (converted)): ~6.6 h | half-life ([4]; iv, I.V., read-out: T1/2 (converted)): 5.51 ± 1.86 h
